Source: patent US9493455B2, “Azaindole derivatives as inhibitors of protein kinases” (ORIBASE PHARMA, priority 2012, dated 2016)

Assays:
[1] = tested on: PC-3; test: In vitro cell proliferation assay (MTT); assay type: cell-based; settings: Homo sapiens, PC-3, 72 h
Method in brief: (§1)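 Seed 5×10^3 cells per well. Add compound at rising doses (10 nM to 3 μM), run in duplicate. Incubate 72 hr, then quantify growth with MTT.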

[2] = tested on: H1975; test: In vitro cell proliferation assay (MTT); assay type: cell-based; settings: Homo sapiens, NCI-H1975, 72 h
Method in brief: as §1

[3] = tested on: BxPC-3; test: In vitro cell proliferation assay (MTT); assay type: cell-based; settings: Homo sapiens, BXPC-3, 72 h
Method in brief: as §1

[4] = tested on: HUVEC; test: In vitro cell proliferation assay (MTT); assay type: cell-based; settings: Homo sapiens, 72 h
Procedure: Cancer cell lines (5×10^3 cells per well) or HUVEC (1×10^4 cells per well) or HRMEC (1×10^4 cells per well) were distributed in 96-well plates and incubating in duplicate with escalating concentrations (10 nM to 3 μM) of compounds for 72 hr. Cell proliferation was measured using MTT (3 [4,5-dimethylthiazol-2-yl]-2,5-diphenyltetrazolium bromide).

[5] = tested on: HT29; test: In vitro cell proliferation assay (MTT); assay type: cell-based; settings: Homo sapiens, HT-29, 72 h
Method in brief: as §1

[6] = tested on: A549; test: In vitro cell proliferation assay (MTT); assay type: cell-based; settings: Homo sapiens, A549, 72 h
Method in brief: as §1

[7] = tested on: HepG2; test: In vitro cell proliferation assay (MTT); assay type: cell-based; settings: Homo sapiens, HepG2, 72 h
Method in brief: as §1

[8] = tested on: MDA-MB-231; test: In vitro cell proliferation assay (MTT); assay type: cell-based; settings: Homo sapiens, MDA-MB-231, 72 h
Method in brief: as §1

[9] = biological target: T1, EGFR (ErbB1) (Homo sapiens, UniProt P00533); test: In vitro kinase assay (Z′-LYTE); assay type: biochemical; settings: read-out: % of inhibition of the kinase compared to the control
T1 construct: purchased Invitrogen
Method in brief: (§2)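 Inhibition measured at a single dose, 100 nM, or 10 μM for ABL T315I. Z′-LYTE format with ATP at apparent Km; emission ratio of donor to acceptor quantifies phosphorylation.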

[10] = biological target: T2, VEGFR1 (Homo sapiens, UniProt P17948); test: In vitro kinase assay (Z′-LYTE); assay type: biochemical; settings: read-out: % of inhibition of the kinase compared to the control
T2 construct: purchased Invitrogen
T2 sequence (P17948 27-1338): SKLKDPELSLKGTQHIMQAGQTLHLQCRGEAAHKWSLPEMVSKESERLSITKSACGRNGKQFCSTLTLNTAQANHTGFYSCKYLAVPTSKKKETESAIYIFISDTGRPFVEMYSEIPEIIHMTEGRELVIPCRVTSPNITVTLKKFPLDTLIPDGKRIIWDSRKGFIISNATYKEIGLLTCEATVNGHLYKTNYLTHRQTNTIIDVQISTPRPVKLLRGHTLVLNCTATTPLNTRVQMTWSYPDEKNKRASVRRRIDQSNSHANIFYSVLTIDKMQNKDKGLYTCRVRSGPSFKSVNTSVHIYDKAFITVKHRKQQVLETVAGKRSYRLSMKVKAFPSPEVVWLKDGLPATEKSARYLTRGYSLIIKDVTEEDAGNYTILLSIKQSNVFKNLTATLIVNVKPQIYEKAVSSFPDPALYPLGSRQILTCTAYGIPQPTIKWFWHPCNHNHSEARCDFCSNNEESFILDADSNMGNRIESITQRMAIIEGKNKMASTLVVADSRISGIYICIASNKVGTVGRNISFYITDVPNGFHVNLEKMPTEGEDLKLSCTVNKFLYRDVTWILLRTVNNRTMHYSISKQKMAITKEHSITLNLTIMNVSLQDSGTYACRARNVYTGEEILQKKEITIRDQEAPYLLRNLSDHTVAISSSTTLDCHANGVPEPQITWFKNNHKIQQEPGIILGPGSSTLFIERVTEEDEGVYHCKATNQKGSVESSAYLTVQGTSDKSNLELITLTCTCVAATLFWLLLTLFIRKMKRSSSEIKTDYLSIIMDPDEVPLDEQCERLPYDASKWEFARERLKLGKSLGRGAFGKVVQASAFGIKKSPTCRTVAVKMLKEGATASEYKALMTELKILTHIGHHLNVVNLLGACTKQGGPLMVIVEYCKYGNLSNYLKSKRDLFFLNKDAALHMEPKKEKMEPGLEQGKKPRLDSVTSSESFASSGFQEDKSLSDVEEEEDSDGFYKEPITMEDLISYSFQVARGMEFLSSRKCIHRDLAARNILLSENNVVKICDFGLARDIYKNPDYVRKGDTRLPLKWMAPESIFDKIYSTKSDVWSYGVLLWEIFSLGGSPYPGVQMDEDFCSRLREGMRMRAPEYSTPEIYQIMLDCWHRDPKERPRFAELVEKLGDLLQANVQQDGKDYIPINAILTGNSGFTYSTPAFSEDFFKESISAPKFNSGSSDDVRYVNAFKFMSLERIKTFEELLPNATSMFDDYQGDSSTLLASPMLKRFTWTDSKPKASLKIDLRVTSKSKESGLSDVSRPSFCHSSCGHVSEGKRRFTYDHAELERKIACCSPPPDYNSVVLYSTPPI
Method in brief: as §2

[11] = biological target: T3, ABL T315I (Homo sapiens, UniProt P00519, T315I); test: In vitro kinase assay (Z′-LYTE); assay type: biochemical; settings: read-out: % of inhibition of the kinase compared to the control
T3 construct: purchased Invitrogen
Method in brief: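 Single-point inhibition at 100 nM per compound (10 μM for ABL T315I), 1% DMSO final. Kinase buffer: 50 mM HEPES pH 7.5, 0.01% BRIJ-35, 10 mM MgCl2, 1 mM EGTA; ATP at previously determined apparent Km. Readout by FRET emission ratio (Z′-LYTE).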

[12] = biological target: T4, EGFR (ErbB1) T790M L858R (Homo sapiens, UniProt P00533, L858R/T790M); test: In vitro kinase assay (Z′-LYTE); assay type: biochemical; settings: read-out: % of inhibition of the kinase compared to the control
T4 construct: purchased Invitrogen
Method in brief: as §2

[13] = biological target: T5, FGFR2 (Homo sapiens, UniProt P21802); test: In vitro kinase assay (Z′-LYTE); assay type: biochemical; settings: read-out: % of inhibition of the kinase compared to the control
T5 construct: purchased Invitrogen
Method in brief: as §2

[14] = biological target: T6, KDR (VEGFR2) (Homo sapiens, UniProt P35968); test: In vitro kinase assay (Z′-LYTE); assay type: biochemical; settings: read-out: % of inhibition of the kinase compared to the control
T6 construct: purchased Invitrogen
T6 sequence (P35968 20-1356): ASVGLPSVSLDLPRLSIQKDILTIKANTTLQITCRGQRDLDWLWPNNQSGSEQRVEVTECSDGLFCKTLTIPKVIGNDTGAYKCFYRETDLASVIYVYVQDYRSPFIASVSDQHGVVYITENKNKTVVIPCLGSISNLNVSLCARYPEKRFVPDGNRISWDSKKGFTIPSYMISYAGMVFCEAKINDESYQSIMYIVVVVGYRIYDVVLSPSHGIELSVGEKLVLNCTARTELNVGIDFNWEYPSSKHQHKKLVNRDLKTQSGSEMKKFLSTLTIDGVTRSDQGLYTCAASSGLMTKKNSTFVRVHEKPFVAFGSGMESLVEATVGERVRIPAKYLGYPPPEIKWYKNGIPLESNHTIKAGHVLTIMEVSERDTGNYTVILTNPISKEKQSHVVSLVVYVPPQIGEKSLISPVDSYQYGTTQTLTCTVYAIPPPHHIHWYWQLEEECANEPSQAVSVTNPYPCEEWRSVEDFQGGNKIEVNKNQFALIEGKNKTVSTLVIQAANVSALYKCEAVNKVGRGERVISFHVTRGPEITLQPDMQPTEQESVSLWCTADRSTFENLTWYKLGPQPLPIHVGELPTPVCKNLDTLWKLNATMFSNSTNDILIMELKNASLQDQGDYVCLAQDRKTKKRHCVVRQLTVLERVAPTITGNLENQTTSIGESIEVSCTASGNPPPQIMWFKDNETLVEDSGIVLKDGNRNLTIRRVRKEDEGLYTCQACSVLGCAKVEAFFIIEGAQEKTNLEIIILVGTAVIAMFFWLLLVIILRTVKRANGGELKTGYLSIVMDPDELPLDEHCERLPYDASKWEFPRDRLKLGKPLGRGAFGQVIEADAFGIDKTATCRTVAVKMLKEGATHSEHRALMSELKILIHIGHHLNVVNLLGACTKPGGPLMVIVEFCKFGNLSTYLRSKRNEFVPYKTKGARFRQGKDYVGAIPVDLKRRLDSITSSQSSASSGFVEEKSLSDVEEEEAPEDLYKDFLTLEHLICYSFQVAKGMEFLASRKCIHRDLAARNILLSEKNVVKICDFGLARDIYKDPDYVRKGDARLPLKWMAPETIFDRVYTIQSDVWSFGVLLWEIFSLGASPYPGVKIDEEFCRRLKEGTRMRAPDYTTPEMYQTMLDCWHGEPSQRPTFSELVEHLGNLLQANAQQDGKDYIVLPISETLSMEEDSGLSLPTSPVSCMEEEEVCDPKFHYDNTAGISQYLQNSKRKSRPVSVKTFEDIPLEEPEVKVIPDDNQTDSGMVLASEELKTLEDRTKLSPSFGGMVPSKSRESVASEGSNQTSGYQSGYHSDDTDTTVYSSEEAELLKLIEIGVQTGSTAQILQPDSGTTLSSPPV
Method in brief: as §2

[15] = biological target: T7, SRC (Homo sapiens, UniProt P12931); test: In vitro kinase assay (Z′-LYTE); assay type: biochemical; settings: read-out: % of inhibition of the kinase compared to the control
T7 construct: purchased Invitrogen
T7 sequence (P12931 whole entry): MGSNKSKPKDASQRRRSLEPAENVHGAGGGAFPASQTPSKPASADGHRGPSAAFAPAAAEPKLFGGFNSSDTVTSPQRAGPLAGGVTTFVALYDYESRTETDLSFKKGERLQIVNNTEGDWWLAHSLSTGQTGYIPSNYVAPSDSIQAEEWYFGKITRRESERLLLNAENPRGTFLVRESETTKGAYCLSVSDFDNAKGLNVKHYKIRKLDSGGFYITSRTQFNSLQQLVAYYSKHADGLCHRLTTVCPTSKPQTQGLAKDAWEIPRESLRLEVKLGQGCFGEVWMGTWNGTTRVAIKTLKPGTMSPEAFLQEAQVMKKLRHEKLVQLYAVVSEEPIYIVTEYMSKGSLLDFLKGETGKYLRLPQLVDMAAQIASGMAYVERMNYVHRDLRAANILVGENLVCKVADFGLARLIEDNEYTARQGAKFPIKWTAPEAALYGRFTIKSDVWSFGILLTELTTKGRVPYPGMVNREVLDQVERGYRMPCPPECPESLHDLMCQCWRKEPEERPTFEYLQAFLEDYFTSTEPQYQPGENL
Method in brief: as §2

[16] = biological target: T8, FGFR1 (Homo sapiens, UniProt P11362); test: In vitro kinase assay (Z′-LYTE); assay type: biochemical; settings: read-out: % of inhibition of the kinase compared to the control
T8 construct: purchased Invitrogen
T8 sequence (P11362 22-822): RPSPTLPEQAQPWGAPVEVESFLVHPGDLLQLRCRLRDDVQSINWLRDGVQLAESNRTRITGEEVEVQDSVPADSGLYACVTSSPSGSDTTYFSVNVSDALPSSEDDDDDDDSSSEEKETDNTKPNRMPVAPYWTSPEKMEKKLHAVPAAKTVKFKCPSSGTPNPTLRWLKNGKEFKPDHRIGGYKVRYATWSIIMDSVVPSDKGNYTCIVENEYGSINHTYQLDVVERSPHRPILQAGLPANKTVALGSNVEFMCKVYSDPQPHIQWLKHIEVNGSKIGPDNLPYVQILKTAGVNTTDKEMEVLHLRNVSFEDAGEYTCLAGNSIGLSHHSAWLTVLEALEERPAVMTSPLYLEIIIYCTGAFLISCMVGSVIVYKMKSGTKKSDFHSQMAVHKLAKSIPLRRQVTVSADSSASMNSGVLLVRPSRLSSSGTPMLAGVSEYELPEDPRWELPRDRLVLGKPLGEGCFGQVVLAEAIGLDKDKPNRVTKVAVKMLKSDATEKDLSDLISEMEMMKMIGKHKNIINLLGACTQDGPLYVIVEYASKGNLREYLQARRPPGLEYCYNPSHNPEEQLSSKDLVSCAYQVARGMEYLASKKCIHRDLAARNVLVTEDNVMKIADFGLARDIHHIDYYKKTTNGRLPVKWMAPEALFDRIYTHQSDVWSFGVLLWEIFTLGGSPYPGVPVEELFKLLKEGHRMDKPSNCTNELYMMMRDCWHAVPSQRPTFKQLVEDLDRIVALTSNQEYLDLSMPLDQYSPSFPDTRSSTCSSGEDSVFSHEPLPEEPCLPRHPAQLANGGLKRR
Method in brief: as §2

[17] = biological target: T9, PDGFRB (Homo sapiens, UniProt P09619); test: In vitro kinase assay (Z′-LYTE); assay type: biochemical; settings: read-out: % of inhibition of the kinase compared to the control
T9 construct: purchased Invitrogen
Method in brief: as §2

[18] = biological target: T10, PDGFRA (PDGFR alpha) (Homo sapiens, UniProt P16234); test: In vitro kinase assay (Z′-LYTE); assay type: biochemical; settings: read-out: % of inhibition of the kinase compared to the control
T10 construct: purchased Invitrogen
T10 sequence (P16234 24-1089): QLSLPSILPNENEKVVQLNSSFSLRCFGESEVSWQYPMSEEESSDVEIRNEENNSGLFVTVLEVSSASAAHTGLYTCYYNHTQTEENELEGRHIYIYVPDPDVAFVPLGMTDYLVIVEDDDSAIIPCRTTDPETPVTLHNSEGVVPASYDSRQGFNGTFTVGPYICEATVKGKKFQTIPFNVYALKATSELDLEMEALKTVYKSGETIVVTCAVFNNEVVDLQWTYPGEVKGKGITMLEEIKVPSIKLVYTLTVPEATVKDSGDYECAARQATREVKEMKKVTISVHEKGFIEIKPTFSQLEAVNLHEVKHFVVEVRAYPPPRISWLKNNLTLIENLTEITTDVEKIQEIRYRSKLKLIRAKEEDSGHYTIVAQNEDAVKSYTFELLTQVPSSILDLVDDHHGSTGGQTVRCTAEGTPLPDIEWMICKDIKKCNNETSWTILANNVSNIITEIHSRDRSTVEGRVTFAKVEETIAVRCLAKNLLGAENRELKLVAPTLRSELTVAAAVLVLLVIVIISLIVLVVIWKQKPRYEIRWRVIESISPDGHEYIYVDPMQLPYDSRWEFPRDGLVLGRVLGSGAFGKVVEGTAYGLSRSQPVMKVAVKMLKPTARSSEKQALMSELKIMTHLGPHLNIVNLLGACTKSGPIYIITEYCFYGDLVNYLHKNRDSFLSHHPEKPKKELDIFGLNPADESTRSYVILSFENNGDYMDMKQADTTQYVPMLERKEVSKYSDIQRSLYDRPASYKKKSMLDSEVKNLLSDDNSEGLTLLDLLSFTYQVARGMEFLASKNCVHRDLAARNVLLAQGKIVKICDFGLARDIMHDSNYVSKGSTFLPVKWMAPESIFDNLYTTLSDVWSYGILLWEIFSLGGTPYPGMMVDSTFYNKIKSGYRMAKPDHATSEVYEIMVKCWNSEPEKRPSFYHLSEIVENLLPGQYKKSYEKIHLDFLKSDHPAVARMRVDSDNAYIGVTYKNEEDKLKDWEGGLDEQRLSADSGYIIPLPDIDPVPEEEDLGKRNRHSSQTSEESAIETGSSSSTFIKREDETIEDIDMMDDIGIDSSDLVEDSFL
Method in brief: as §2

[19] = biological target: T11, ABL (Homo sapiens, UniProt P00519); test: In vitro kinase assay (Z′-LYTE); assay type: biochemical; settings: read-out: % of inhibition of the kinase compared to the control
T11 construct: purchased Invitrogen

[20] = biological target: T12, BRAF (Homo sapiens, UniProt P15056); test: In vitro kinase assay (Z′-LYTE); assay type: biochemical; settings: compound 100 nM; ATP 100 μM; read-out: % of inhibition of the kinase compared to the control
T12 construct: purchased Invitrogen
Method in brief: as §2

[21] = tested on: HeLa; test: In vitro cell proliferation assay (MTT); assay type: cell-based; settings: Homo sapiens, 72 h
Method in brief: as §1

[22] = tested on: HuCCT1; test: In vitro cell proliferation assay (MTT); assay type: cell-based; settings: Homo sapiens, HuCCT-1, 72 h
Method in brief: as §1

COC(=O)c1cc2cc(NCc3cc(NC(=O)c4cc(N(C)C)cc(C(F)(F)F)c4)ccc3C)cnc2[nH]1 [OR0597]
100 to 1000 nM: EC50 [2] | EC50 [3] | EC50 [4] | EC50 [5] | EC50 [6]
≤ 100 nM: EC50 [7] | EC50 [8]
< 50%: inhibition at 0.1 µM [9] | inhibition at 0.1 µM [10] | inhibition at 0.1 µM [12] | inhibition at 0.1 µM [13] | inhibition at 0.1 µM [14] | inhibition at 0.1 µM [16] | inhibition at 0.1 µM [17] | inhibition at 0.1 µM [18] | inhibition at 0.1 µM [20]
≥ 50%: inhibition at 10 µM [11] | inhibition at 0.1 µM [15] | inhibition at 10 µM [19]
≥ 1000 nM: EC50 [1]

COC(=O)c1cc2cc(NCc3cc(NC(=O)c4cccc(C(C)C)c4)ccc3C)cnc2[nH]1 [OR0610]
≤ 100 nM: EC50 [4] | EC50 [8]
≥ 1000 nM: EC50 [1]
< 50%: inhibition at 0.1 µM [10] | inhibition at 0.1 µM [12] | inhibition at 0.1 µM [13] | inhibition at 0.1 µM [14] | inhibition at 0.1 µM [16] | inhibition at 0.1 µM [17] | inhibition at 0.1 µM [20]
≥ 50%: inhibition at 0.1 µM [9] | inhibition at 10 µM [11] | inhibition at 0.1 µM [15] | inhibition at 0.1 µM [18] | inhibition at 10 µM [19]
100 to 1000 nM: EC50 [2] | EC50 [3] | EC50 [5] | EC50 [6] | EC50 [7]

COC(=O)c1cc2cc(NCc3cc(NC(=S)c4ccc(CN5CCN(C)CC5)c(C(F)(F)F)c4)ccc3C)cnc2[nH]1 [OR0626]
< 50%: inhibition at 0.1 µM [14] | inhibition at 0.1 µM [20]
≥ 1000 nM: EC50 [4] | EC50 [21] | EC50 [6] | EC50 [7]
100 to 1000 nM: EC50 [8]
≥ 50%: inhibition at 0.1 µM [9] | inhibition at 0.1 µM [13]

COC(=O)c1cc2cc(NCc3cc(NC(=O)c4ccc(CN5CCC(O)CC5)c(C(F)(F)F)c4)ccc3C)cnc2[nH]1 [OR0636]
< 50%: inhibition at 0.1 µM [10] | inhibition at 10 µM [11] | inhibition at 0.1 µM [12] | inhibition at 0.1 µM [13] | inhibition at 0.1 µM [14] | inhibition at 0.1 µM [16] | inhibition at 0.1 µM [17] | inhibition at 0.1 µM [20]
≥ 50%: inhibition at 0.1 µM [9] | inhibition at 0.1 µM [15] | inhibition at 0.1 µM [18] | inhibition at 10 µM [19]
100 to 1000 nM: EC50 [3] | EC50 [4] | EC50 [5] | EC50 [6] | EC50 [7] | EC50 [8]
≥ 1000 nM: EC50 [22] | EC50 [1] | EC50 [2]

COC(=O)c1cc2cc(NCc3cc(NC(=O)c4cc(Nc5cc[nH]n5)cc(C(F)(F)F)c4)ccc3C)cnc2[nH]1 [OR0642]
< 50%: inhibition at 0.1 µM [10] | inhibition at 0.1 µM [12] | inhibition at 0.1 µM [13] | inhibition at 0.1 µM [14] | inhibition at 0.1 µM [16] | inhibition at 0.1 µM [17] | inhibition at 0.1 µM [18] | inhibition at 0.1 µM [20]
100 to 1000 nM: EC50 [3] | EC50 [5] | EC50 [6]
≥ 50%: inhibition at 0.1 µM [9] | inhibition at 10 µM [11] | inhibition at 0.1 µM [15] | inhibition at 10 µM [19]
≥ 1000 nM: EC50 [1] | EC50 [2]
≤ 100 nM: EC50 [4] | EC50 [7] | EC50 [8]

COC(=O)c1cc2cc(NCc3cc(NC(=O)Nc4ccncc4)ccc3C)cnc2[nH]1 [OR0952]
< 50%: inhibition at 0.1 µM [9] | inhibition at 0.1 µM [13] | inhibition at 0.1 µM [14] | inhibition at 0.1 µM [18] | inhibition at 0.1 µM [20]
≥ 1000 nM: EC50 [4] | EC50 [21] | EC50 [6] | EC50 [7] | EC50 [8]

COC(=O)c1cc2cc(NC(=O)c3cccc(CNC(=S)c4cccc(C(F)(F)F)c4)c3)cnc2[nH]1 [OR1011]
< 50%: inhibition at 0.1 µM [9] | inhibition at 0.1 µM [13] | inhibition at 0.1 µM [14] | inhibition at 0.1 µM [18] | inhibition at 0.1 µM [20]
≥ 1000 nM: EC50 [4] | EC50 [21] | EC50 [6] | EC50 [7] | EC50 [8]

COC(=O)c1cc2cc(NCc3cc(NC(=S)Nc4cccc(C(F)(F)F)c4)ccc3C)cnc2[nH]1 [OR1016]
100 to 1000 nM: EC50 [7] | EC50 [8]
≥ 1000 nM: EC50 [4] | EC50 [21] | EC50 [6]
< 50%: inhibition at 0.1 µM [9] | inhibition at 0.1 µM [14] | inhibition at 0.1 µM [20]

COC(=O)c1cc2cc(NCc3cc(NC(=O)c4ccccc4OC)ccc3C)cnc2[nH]1 [OR1062]
< 50%: inhibition at 0.1 µM [9] | inhibition at 0.1 µM [13] | inhibition at 0.1 µM [14]
≥ 1000 nM: EC50 [21] | EC50 [6] | EC50 [7]
≥ 50%: inhibition at 0.1 µM [15] | inhibition at 0.1 µM [18] | inhibition at 0.1 µM [20]
100 to 1000 nM: EC50 [4] | EC50 [8]

COC(=O)c1cc2cc(NCc3cccc(NC(=O)c4ccc(CN5CCN(C)CC5)c(C(F)(F)F)c4)c3)cnc2[nH]1 [OR1067]
≤ 100 nM: EC50 [4]
100 to 1000 nM: EC50 [21] | EC50 [6]
≥ 1000 nM: EC50 [7]
≥ 50%: inhibition at 0.1 µM [9] | inhibition at 0.1 µM [13] | inhibition at 0.1 µM [14] | inhibition at 0.1 µM [15] | inhibition at 0.1 µM [18]
< 50%: inhibition at 0.1 µM [20]
